Like-named read-outs stand apart in the source and are kept apart here.
Assays:
Ca^2+ intake in the cell = assay: Effect of the compounds on the calcium influx (Ca2+ intake) to the cell; type: cell-based; conditions: compound 20 μg/ml; − = decrease, + = increase
Excerpt: (§1) In the following Table I some of the preferred plant-derived phenolic compounds according to the present invention, the effect of the compounds on the calcium influx to the cell, the antioxidant effect as well as the chemical structure of the compounds are presented.

[1] = Antioxidant effect, IC50 against DPPH; type: biochemical; conditions: read-out: IC50 [moles L^−1] against DPPH′
Excerpt: as §1

[2] = tested on: C. pneumoniae K7 strain (clinical isolate); assay: Direct anti-chlamydial effect (inhibition of formation of inclusions), HL host cells; type: cell-based; conditions: for Inhibition of the growth of C. pneumoniae (in words): concentration of 0.5-50 μg
Excerpt: The Direct Anti-Chlamydial Effect of Plant-Derived Phenolic Compounds (As Inhibition of Formation of Inclusions)/C. pneumoniae K7 Strain (Clinical Isolate)
(§2) The cultivated HL cells are infected with C. pneumoniae EB's. The EB's which have invaded the cell are changed into the metabolically active reticulate body (RB) which are dividing by binary fission in the endosome vacuole or inclusion.
(§3) After a certain time (about 72 hr) the C. pneumoniae RB's are condensing back into EB's, after which the inclusions are broken, the host cells are broken and the EB's are liberated. In this method the intention is to verify the inclusions before the breaking up of the host cells.
(§4) As the host cell of C. pneumoniae in in vitro conditions HL cells are used. As the host cells of C. trachomatis in in vitro conditions McCoy cells often are used.
(§5) On the day preceding the infection the host cells are inoculated on a 24-well plate: the cells are harvested by trypsinisation, they are suspended in ca. 5 ml of the nutrition liquid and counted in a Burker's chamber. Each well are seeded using a concentration of 250000-400000 cells/well for cultivation. Before the addition of the cells to the well is if necessary round cover glass (diameter 13 mm) put for staining. Nutrition liquid is added so that the volume is 1 ml/well. On the following day the cells are infected with the desired bacterium.
(§6) Solution to be used in the infection and containing chlamydiae particles is mixed throughout. The old nutrition liquid is aspirated away. By the infection the inoculum which has been stored at −70° C. is diluted to an IFU concentration of ca. 10^3 so that the volume of the solution is at least 200 μl/well on a 24-well plate. The cells are infected by centrifuging at 1600 rpm (550×g)/1 hr. The nutrition medium is aspirated away and changed to a maintenance medium containing cyclohexamide and also containing the studied compound (DMSO concentration 0.2%), 1 ml/well. The cells are incubated in a 5% CO2 atmosphere at +35° C. The cells infected with C. pneumoniae are incubated for 3 days. After 2-3 days the maintenance medium is removed and the cells washed with 1×1 ml of PBS. To the wells 200 μl of SPG are added for further infection, harvested with a pipette tip and transferred into tubes. This is used for infecting new cells in the same way as above to test the inhibition of infectivity (chlamydiasidic effect).
(§7) The nutrition medium, which is above the cover glass left for staining, is aspirated away. The infected cells are fixed on the cover glass with methanol for 10 min. The cover glass is removed from the well and -transferred onto a suitable fluorescein-conjugated monoclonal antibody on Parafilm in a moist chamber with the cell-containing side down. The cover glass is incubated for 30 min at +37° C. and washed twice with PBS and once with water. Finally it is dried. The cover glass is put with the cell-containing side down on an object glass containing a fixative (e.g. Mounting medium). When viewed under the fluorescent microscope, cell culture specimens infacted with chlamydiae show a characteristic apple-green fluorescence of inclusions against a red counterstained background.

C. pneumoniae [3] = assay: Inhibition of the infectivity (chlamydiasidic effect), re-infection of new cells; type: cell-based; conditions: for inhibition at 0.5 µM / inhibition at 50 µM: Chlamydia pneumoniae
Description: Inhibition of the Infectivity/C. pneumoniae
as §6, §7

C. trachomatis = assay: Direct anti-chlamydial effect on C. trachomatis, cultivation in McCoy cells; type: cell-based; conditions: for inhibition at 0.5 µM / inhibition at 50 µM: Chlamydia trachomatis; for Effect on C. trachomatis (in words): pretreated host cells
Description: C. trachomatis, cultivation in McCoy cells. The test procedure otherwise the same as with C. pneumoniae.
as §4, §5, §6, §7

HL cells = assay: Toxicity towards the host cells, Trypan blue staining, no infection; type: cell-based, human
Description: The determination was performed as in the previous tests but without any infection. The viability was determined with Trypan blue staining.

C. pneumoniae [4] = assay: Direct anti-chlamydial effect of compounds and mixtures on C. pneumoniae (Example 5); type: cell-based; conditions: 50 μM
Description: Direct Anti-Chlamydial Effect of Plant-Derived Phenolic Compounds, Certain Synthetic Compounds and Mixtures on C. pneumoniae
The concentration used was 50 μM.
as §2, §3, §5, §6, §7

[5] = tested on: C. pneumoniae K7 strain (clinical isolate); assay: Direct anti-chlamydial effect (inhibition of formation of inclusions), HL host cells; type: cell-based; conditions: host cells incubated 1 day with compound before infection

Question: Which results are given for `O=c1c(O)c(-c2ccc(O)c(O)c2)oc2cc(O)cc(O)c12` [Quercetin]?
Answer: inhibition at 20 µg/mL (Ca^2+ intake in the cell): -54.1%; IC50 [1]: 10.7 µM; inhibition at 0.5 µM ([2]; Chlamydia pneumoniae, 0.5 μM, formation of inclusions, read-out: Inhibition % of the DMSO control): 68%; inhibition at 50 µM ([2]; Chlamydia pneumoniae, 50 μM, formation of inclusions, read-out: Inhibition % of the DMSO control): 90%; Inhibition of the growth of C. pneumoniae (in words) [2]: inhibited the growth; inhibition at 0.5 µM (C. pneumoniae [3]; 0.5 μM, host cells pre-treated 1 day, read-out: Inhibition % of the DMSO control (pre-treated)): 0%; inhibition at 0.5 µM (C. pneumoniae [3]; 0.5 μM, read-out: Inhibition % of the DMSO control): 58%; inhibition at 50 µM (C. pneumoniae [3]; 50 μM, host cells pre-treated 1 day, read-out: Inhibition % of the DMSO control (pre-treated)): 0%; inhibition at 50 µM (C. pneumoniae [3]; 50 μM, read-out: Inhibition % of the DMSO control): 76%; inhibition at 0.5 µM (C. trachomatis; 0.5 μM, McCoy cells pre-treated 1 day, read-out: Inhibition % of the DMSO control (pre-treated)): 20%; inhibition at 0.5 µM (C. trachomatis; 0.5 μM, McCoy cells, read-out: Inhibition % of the DMSO control): 0%; inhibition at 50 µM (C. trachomatis; 50 μM, McCoy cells pre-treated 1 day, read-out: Inhibition % of the DMSO control (pre-treated)): 100%; inhibition at 50 µM (C. trachomatis; 50 μM, McCoy cells, read-out: Inhibition % of the DMSO control): 0%; Effect on C. trachomatis (in words) (C. trachomatis): particularly effective; Toxicity test HL-C (HL cells; 0.005 μM): 7.4%; Toxicity test HL-C (pre-treated) (HL cells; 0.005 μM): 7.9%; Toxicity test HL-C (HL cells; 0.05 μM): 11.7%; Toxicity test HL-C (pre-treated) (HL cells; 0.05 μM): 7.2%; Toxicity test HL-C (HL cells; 0.5 μM): 7.0%; Toxicity test HL-C (pre-treated) (HL cells; 0.5 μM): 3.3%; Toxicity test HL-C (HL cells; 5 μM): 9.2%; Toxicity test HL-C (pre-treated) (HL cells; 5 μM): 8.1%; Toxicity test HL-C (HL cells; 50 μM): 10.5%; Toxicity test HL-C (pre-treated) (HL cells; 50 μM): 10.5%; inhibition at 50 µM (C. pneumoniae [4]; Chlamydia pneumoniae, read-out: Inhibition %): 90%; inhibition at 0.5 µM ([5]; Chlamydia pneumoniae, 0.5 μM, read-out: Inhibition % of the DMSO control (pre-treated)): 77%; inhibition at 50 µM ([5]; Chlamydia pneumoniae, 50 μM, read-out: Inhibition % of the DMSO control (pre-treated)): 90%

Question: With `COc1cc(O)c2c(=O)c(O)c(-c3ccc(O)c(O)c3)oc2c1` [Rhamnetin] as the compound, how does the “Effect on Ca^2+ intake [%]” value (Ca^2+ intake in the cell) read?
Answer: +6.63%

Question: And the IC50 [1]?
Answer: 12.1 µM

Question: What about the “Inhibition % of the DMSO control” value ([2]; 0.5 μM, formation of inclusions) of the same compound?
Answer: 73%

Question: What about the “Inhibition % of the DMSO control” value ([2]; 50 μM, formation of inclusions) of the same compound?
Answer: 99%

Question: What about the “Inhibition of the growth of C. pneumoniae (in words)” value [2] of the same compound?
Answer: inhibited the growth

Question: What about the “Inhibition % of the DMSO control” value (C. pneumoniae [3]; 0.5 μM) of the same compound?
Answer: 100%

Question: What about the “Inhibition % of the DMSO control (pre-treated)” value (“Inhibition % … (pre-treated)” for short) (C. pneumoniae [3]; 0.5 μM, host cells pre-treated 1 day) of the same compound?
Answer: 75%

Question: And the “Inhibition % of the DMSO control” value (C. pneumoniae [3]; 50 μM)?
Answer: 100%

Question: What about the “Inhibition % … (pre-treated)” value (C. pneumoniae [3]; 50 μM, host cells pre-treated 1 day) of the same compound?
Answer: 67%

Question: And the “Inhibition % of the DMSO control” value (C. trachomatis; 0.5 μM, McCoy cells)?
Answer: 0%

Question: What about the “Inhibition % … (pre-treated)” value (C. trachomatis; 0.5 μM, McCoy cells pre-treated 1 day) of the same compound?
Answer: 17%

Question: What about the “Inhibition % of the DMSO control” value (C. trachomatis; 50 μM, McCoy cells) of the same compound?
Answer: 0%

Question: What about the “Inhibition % … (pre-treated)” value (C. trachomatis; 50 μM, McCoy cells pre-treated 1 day) of the same compound?
Answer: 100%

Question: What about the “Effect on C. trachomatis (in words)” value (C. trachomatis) of the same compound?
Answer: particularly effective

Question: What about the “Toxicity test HL-C” value (HL cells; 0.005 μM) of the same compound?
Answer: 10.9%

Question: And the “Toxicity test HL-C (pre-treated)” value (HL cells; 0.005 μM)?
Answer: 6.6%

Question: And the “Toxicity test HL-C” value (HL cells; 0.05 μM)?
Answer: 9.5%

Question: What about the “Toxicity test HL-C (pre-treated)” value (HL cells; 0.05 μM) of the same compound?
Answer: 7.6%

Question: And the “Toxicity test HL-C” value (HL cells; 0.5 μM)?
Answer: 10.0%

Question: And the “Toxicity test HL-C (pre-treated)” value (HL cells; 0.5 μM)?
Answer: 10.6%

Question: And the “Toxicity test HL-C” value (HL cells; 5 μM)?
Answer: 9.6%

Question: And the “Toxicity test HL-C (pre-treated)” value (HL cells; 5 μM)?
Answer: 8.0%

Question: And the “Toxicity test HL-C” value (HL cells; 50 μM)?
Answer: 15.7%

Question: And the “Toxicity test HL-C (pre-treated)” value (HL cells; 50 μM)?
Answer: 16.9%

Question: And the Inhibition % (C. pneumoniae [4])?
Answer: 100%

Question: And the “Inhibition % … (pre-treated)” value ([5]; 0.5 μM)?
Answer: 50%

Question: What about the “Inhibition % … (pre-treated)” value ([5]; 50 μM) of the same compound?
Answer: 59%

Reference: patent US20040058983A1, “Plan-derived and synthetic phenolic compounds and plant extracts, effective in the treatment and prevention of chlamydial infections” (priority 2000, published 2004)
